Results published in ChEMBL document CHEMBL3045787, “Synthesis of novel 1,4-naphthoquinone derivatives: antibacterial and antifungal agents” (2013).
In brackets after ≈: the same amount, converted by molar mass. Activity calls are given as the source filed them. No cut-off for these calls is given here.

Tests used:
Aspergillus niger [1] = experiment: Antifungal activity against Aspergillus niger assessed as growth inhibition at 0.1% after 48 to 72 hr by agar disk diffusion method; assay type: functional
Escherichia coli [2] = experiment: Antibacterial activity against Escherichia coli B 906 assessed as growth inhibition after 24 to 72 hr by serial dilution method; assay type: functional, organism-based
Mycobacterium [3] = experiment: Antibacterial activity against Mycobacterium luteum B-917 assessed as growth inhibition at 0.1% after 24 hr by agar disk diffusion method; assay type: functional
Aspergillus niger [4] = experiment: Antifungal activity against Aspergillus niger assessed as growth inhibition after 24 to 72 hr by serial dilution method; assay type: functional
Escherichia coli [5] = experiment: Antibacterial activity against Escherichia coli B 906 assessed as growth inhibition at 0.5% after 24 hr by agar disk diffusion method; assay type: functional
Yamadazyma tenuis [6] = experiment: Antifungal activity against Candida tenuis assessed as growth inhibition at 0.5% after 48 to 72 hr by agar disk diffusion method; assay type: functional
Aspergillus niger [7] = experiment: Antifungal activity against Aspergillus niger assessed as growth inhibition at 0.5% after 48 to 72 hr by agar disk diffusion method; assay type: functional
Staphylococcus aureus [8] = experiment: Antibacterial activity against Staphylococcus aureus 209-P assessed as growth inhibition after 24 to 72 hr by serial dilution method; assay type: functional
Staphylococcus aureus [9] = experiment: Antibacterial activity against Staphylococcus aureus 209-P assessed as growth inhibition at 0.5% after 24 hr by agar disk diffusion method; assay type: functional
Escherichia coli [10] = experiment: Antibacterial activity against Escherichia coli B 906 assessed as growth inhibition at 0.1% after 24 hr by agar disk diffusion method; assay type: functional
Mycobacterium [11] = experiment: Antibacterial activity against Mycobacterium luteum B-917 assessed as growth inhibition at 0.5% after 24 hr by agar disk diffusion method; assay type: functional
Mycobacterium [12] = experiment: Antibacterial activity against Mycobacterium luteum B-917 assessed as growth inhibition after 24 to 72 hr by serial dilution method; assay type: functional
Yamadazyma tenuis [13] = experiment: Antifungal activity against Candida tenuis assessed as growth inhibition after 24 to 72 hr by serial dilution method; assay type: functional
Staphylococcus aureus [14] = experiment: Antibacterial activity against Staphylococcus aureus 209-P assessed as growth inhibition at 0.1% after 24 hr by agar disk diffusion method; assay type: functional
Yamadazyma tenuis [15] = experiment: Antifungal activity against Candida tenuis assessed as growth inhibition at 0.1% after 48 to 72 hr by agar disk diffusion method; assay type: functional

Row | Molecule | diameter of the inhibition zone (DIZ) (Aspergillus niger [1]) [mm] | MIC (Escherichia coli [2]) | diameter of the inhibition zone (DIZ) (Mycobacterium [3]) [mm] | MIC (Aspergillus niger [4]) | diameter of the inhibition zone (DIZ) (Escherichia coli [5]) [mm] | diameter of the inhibition zone (DIZ) (Yamadazyma tenuis [6]) [mm] | diameter of the inhibition zone (DIZ) (Aspergillus niger [7]) [mm] | MIC (Staphylococcus aureus [8]) | diameter of the inhibition zone (DIZ) (Staphylococcus aureus [9]) [mm] | diameter of the inhibition zone (DIZ) (Escherichia coli [10]) [mm] | diameter of the inhibition zone (DIZ) (Mycobacterium [11]) [mm] | MIC (Mycobacterium [12]) | MIC (Yamadazyma tenuis [13]) | diameter of the inhibition zone (DIZ) (Staphylococcus aureus [14]) [mm] | diameter of the inhibition zone (DIZ) (Yamadazyma tenuis [15]) [mm] | inhibition zone (IZ) (Aspergillus niger [1]) [mm] | inhibition zone (IZ) (Yamadazyma tenuis [15]) [mm]
1 | COC(=O)CCSC1=C(SCCC(=O)OC)C(=O)c2ccccc2C1=O | 12.4 | inactive | 15.4 | 15.6 µg/mL (≈ 39.5 µM) | 0 | 15 | 14.7 | 250 µg/mL (≈ 634 µM) | 13.4 | 0 | 19.7 | 7.8 µg/mL (≈ 19.8 µM) | 15.6 µg/mL (≈ 39.5 µM) | 10 | 10 | – | –
2 | O=C1C(Cl)=C(N2CCC(C(O)(c3ccccc3)c3ccccc3)CC2)C(=O)c2ccccc21 | 0 | inactive | 7.5 | inactive | 0 | 0 | 0 | inactive | 0 | 0 | 9 | inactive | inactive | 0 | 0 | – | –
3 | O=C1C(SCc2ccc(Cl)cc2)=C(N2CCN(c3ccccc3F)CC2)C(=O)c2ccccc21 | 0 | inactive | 0 | inactive | 0 | 0 | 0 | inactive | 0 | 0 | 0 | inactive | inactive | 0 | 0 | – | –
4 | CN[C@H](CC(C)C)C(=O)N[C@H]1C(=O)N[C@@H](CC(N)=O)C(=O)N[C@H]2C(=O)N[C@H]3C(=O)N[C@H](C(=O)N[C@H](C(=O)O)c4cc(O)cc(O)c4-c4cc3ccc4O)[C@H](O)c3ccc(c(Cl)c3)Oc3cc2cc(c3O[C@@H]2O[C@H](CO)[C@@H](O)[C@H](O)[C@H]2O[C@H]2C[C@](C)(N)[C@H](O)[C@H](C)O2)Oc2ccc(cc2Cl)[C@H]1O [VANCOMYCIN] | – | – | 18 | – | – | – | – | – | – | 14 | – | – | – | 15 | – | – | –
5 | NYSTATIN | – | – | – | – | – | – | – | – | – | – | – | – | – | – | – | 20 | 19
6 | O=C1C(Sc2ccc(O)cc2)=C(Sc2ccc(O)cc2)C(=O)c2ccccc21 | 0 | inactive | 7 | 7.8 µg/mL (≈ 19.2 µM) | 0 | 0 | 8 | 125 µg/mL (≈ 308 µM) | 9.7 | 0 | 12.7 | 250 µg/mL (≈ 615 µM) | 7.8 µg/mL (≈ 19.2 µM) | 6 | 0 | – | –
7 | COC(=O)CCSC1=C(Cl)C(=O)c2ccccc2C1=O | 11 | inactive | 9 | 7.8 µg/mL (≈ 25.1 µM) | 0 | 13 | 10.4 | inactive | 8 | 0 | 18 | 7.8 µg/mL (≈ 25.1 µM) | 1.9 µg/mL (≈ 6.11 µM) | 6 | 12.4 | – | –
8 | CCOC1=C(Sc2ccc(O)cc2)C(=O)c2ccccc2C1=O | 0 | inactive | 0 | 15.6 µg/mL (≈ 47.8 µM) | 0 | 0 | 0 | inactive | 0 | 0 | 0 | 125 µg/mL (≈ 383 µM) | 31.2 µg/mL (≈ 95.6 µM) | 0 | 0 | – | –
9 | O=C1C2=C(SCCCCSC3=C(SCCCCS2)C(=O)c2ccccc2C3=O)C(=O)c2ccccc21 | 16.4 | inactive | 21.4 | 15.6 µg/mL (≈ 28.2 µM) | 0 | 11.4 | 19.4 | 500 µg/mL (≈ 905 µM) | 12 | 0 | 25.4 | 1.9 µg/mL (≈ 3.44 µM) | 3.9 µg/mL (≈ 7.06 µM) | 10.4 | 9.7 | – | –
10 | O=C1C(SCc2ccc(Cl)cc2)=C(N2CCSCC2)C(=O)c2ccccc21 | 0 | inactive | 7 | 31.2 µg/mL (≈ 75 µM) | 0 | 0 | 0 | inactive | 0 | 0 | 13.4 | 125 µg/mL (≈ 301 µM) | 7.8 µg/mL (≈ 18.8 µM) | 0 | 0 | – | –
11 | O=C1C(Cl)=C(Sc2c(Cl)c(Cl)c(Cl)c(Cl)c2Cl)C(=O)c2ccccc21 | 0 | inactive | 0 | 250 µg/mL (≈ 529 µM) | 0 | 0 | 0 | inactive | 0 | 0 | 0 | inactive | 125 µg/mL (≈ 264 µM) | 0 | 0 | – | –
12 | O=C1C(SCc2ccc(Cl)cc2)=C(N2CCCC2)C(=O)c2ccccc21 | 0 | inactive | 8.7 | 15.6 µg/mL (≈ 40.6 µM) | 0 | 0 | 0 | 250 µg/mL (≈ 651 µM) | 0 | 0 | 14.4 | 125 µg/mL (≈ 326 µM) | 7.8 µg/mL (≈ 20.3 µM) | 0 | 0 | – | –
13 | CCOC1=C(Sc2nccn2C)C(=O)c2ccccc2C1=O | 0 | inactive | 0 | 15.6 µg/mL (≈ 49.6 µM) | 0 | 0 | 12 | inactive | 0 | 0 | 0 | inactive | 250 µg/mL (≈ 795 µM) | 0 | 0 | – | –
14 | O=C1C(SCc2ccc(Cl)cc2)=C(N2CCOCC2)C(=O)c2ccccc21 | 0 | inactive | 7 | inactive | 0 | 0 | 0 | inactive | 0 | 0 | 8 | inactive | inactive | 0 | 0 | – | –
15 | O=C1C(SCc2ccc(Cl)cc2)=C(N2CCC(C(O)(c3ccccc3)c3ccccc3)CC2)C(=O)c2ccccc21 | 0 | inactive | 0 | 31.2 µg/mL (≈ 53.8 µM) | 0 | 0 | 0 | inactive | 0 | 0 | 0 | inactive | 7.8 µg/mL (≈ 13.4 µM) | 0 | 0 | – | –
